Experimental data taken from patent US20110123670A1, “COMESTIBLE PRODUCTS” (priority 2007, published 2011).

Columns and labels:
[1] = tested on: panel of 10-12 trained assessors; assay: Determination of salivation effect: Quantitative Descriptive Analysis, Time-Intensity measurement of salivating mouthfeel; format: in vivo; conditions: for Increase Angle (°) / Time to Maximum Salivatory Effect / Area under Curve / Intensity at Maximum: salivating effect, chewy confectionary with 46.0 wt % test sweetener, 90 second test period, mean of at least 13 repetitions; for Area under Curve / Intensity at Maximum: relative values
Source text: (§1) Quantitative Descriptive Analysis was used to determine the salivation effect of the invention. Seven samples of confectionary were tasted by a panel of 10-12 trained assessors using the technique of Time-Intensity measurement. The samples differed only in the sweetener component of the product.
(§2) This technique involves the testing of the confectionary sample in a sensory booth. The booth contained a computer equipped with software which allowed the panellist to record the perceived level of the mouth-watering sensation with time. Each assessor measured the perceived intensity of salivating mouthfeel at 1 second intervals over a time period of 90 seconds for each sample. This was achieved by initiating a timer within the software as the sample was placed in the mouth. Over the subsequent 90 second period the position of a marker on a linear slide scale was adjusted according to the perceived level of salivation. The data thus obtained was then processed to produce an analysis curve (intensity of effect versus time). The assessment was repeated multiple times (multiple assessors were used and at least three repetitions per assessor) and the result derived from the mean of the values obtained. The parameters determined were as follows: • Time to maximum salivatory effect, the time taken in seconds for the sample to reach its maximum intensity, a short time being indicative of the desired rapid inception of mouth-watering; • Intensity of salivation at maximum, the highest point in the curve as recorded by each assessor, a high intensity being generally preferred; • Area under the analysis curve, the larger this area the greater the total salivation over the 90 second test period; and • Increase angle, the angle in degrees of ascent from the first recorded value to the maximum intensity, a greater increase angle on the curve illustrates which samples have the greatest increase in salivation per unit time.
A series of tests were carried out to determine the mouth-watering effect and cooling effect derived from each of a range of sweeteners. The sweeteners tested were sugar (sucrose), erythritol, isomaltulose, trehalose, galactose, dextrose monohydrate and xylitol. Conventional methods were used to prepare this candy chew.

[2] = Determination of cooling effect: drop in temperature on dissolving sweetener powder in distilled water at 37° C.; format: physicochemical; conditions: cooling effect of sweeteners, tested in duplicate, mean
Experimental: 150 g of sweetener powder was dissolved in 50 ml of distilled water at 37° C. with stirring. The drop in temperature was measured after 20 seconds than a further 50 ml of distilled water added and the temperature measured after a further 20 seconds. This step was repeated […] to a total volume of water of 200 ml. All samples were tested in duplicate and the result derived from the mean of the values obtained. The repeated addition of water was intended to mimic the conditions in the mouth, where more saliva would be produced as chewing of the comestible progresses. As a result, the cooling effect is indicative of the cooling effect that would be observed in the mouth upon dissolution of the sweetener during consumption.

[3] = tested on: panel of 10-12 trained assessors; assay: Quantitative Descriptive Analysis of cooling effect (temperature decrease in the nose and mouth); format: in vivo; conditions: mean of at least 10 repetitions; for Increase Angle (°) / Area under Curve / Intensity at Maximum: cooling effect; for Area under Curve / Intensity at Maximum: relative values; for Time to maximum cooling effect: table of cooling effect parameters
Source text: as §1, §2
In addition, the Quantitative Descriptive Analysis as described above with regard to the evaluation of salivation was applied to determine the time to maximum cooling effect, the intensity of cooling at maximum, the area under the analysis curve and the increase angle. Cooling was assessed in terms of the temperature decrease in the nose and mouth, at the time of drawing air into the mouth. As with the determination of salivation using this technique, for effective cooling, a larger value is desirable for all parameters except the time to maximum cooling.

[4] = Studies by the applicant on galactose in sports drinks; format: in vivo; conditions: compared with glucose

| Compound | Magnitude of reduction in temperature at T = 90 seconds (° C.) [2] | Increase Angle (°) [1] | Time to Maximum Salivatory Effect [1] | Area under Curve [1] | Intensity at Maximum [1] | Increase Angle (°) [3] | Area under Curve [3] | Intensity at Maximum [3] | Time to maximum cooling effect [3] | mouth-watering effect relative to that observed through the use of sugar ([1]; at the 90 second interval, FIG. 1) | incidence of hypoglycaemia [4] | overall sporting performance [4] |
| --- | --- | --- | --- | --- | --- | --- | --- | --- | --- | --- | --- | --- |
| O.O=C[C@H](O)[C@@H](O)[C@H](O)[C@H](O)CO [Dextrose Monohydrate, dextrose monohydrate] | 14.5 °C | 38 ° | 76.7 s | 2306 | 52.1 | 36.5 ° | 663 | 24 | 81.9 s | – | – | – |
| OC[C@H]1O[C@H](OC[C@H]2OC(O)(CO)[C@@H](O)[C@@H]2O)[C@H](O)[C@@H](O)[C@@H]1O (some centres unmarked) [Isomaltulose, isomaltulose] | – | 31.1 ° | 65.7 s | 1898 | 34.3 | – | – | – | – | – | – | – |
| OC[C@H]1O[C@H](O[C@H]2O[C@H](CO)[C@@H](O)[C@H](O)[C@H]2O)[C@H](O)[C@@H](O)[C@@H]1O [Trehalose, trehalose] | – | 35.3 ° | 66.5 s | 2253 | 43 | – | – | – | – | – | – | – |
| OC[C@@H](O)[C@@H](O)CO [Erythritol, erythritol] | – | 51.8 ° | 64.8 s | 4079 | 73 | 81.5 ° | 3431 | 59.9 | 63.5 s | – | – | – |

Second part, led by results:

| Magnitude of reduction in temperature at T = 90 seconds (° C.) [2] | Compound | Increase Angle (°) [1] | Time to Maximum Salivatory Effect [1] | Area under Curve [1] | Intensity at Maximum [1] | Increase Angle (°) [3] | Area under Curve [3] | Intensity at Maximum [3] | Time to maximum cooling effect [3] | mouth-watering effect relative to that observed through the use of sugar ([1]; at the 90 second interval, FIG. 1) | incidence of hypoglycaemia [4] | overall sporting performance [4] |
| --- | --- | --- | --- | --- | --- | --- | --- | --- | --- | --- | --- | --- |
| 13.5 °C | OC[C@H]1O[C@@](CO)(O[C@H]2O[C@H](CO)[C@@H](O)[C@H](O)[C@H]2O)[C@@H](O)[C@@H]1O [Sugar, sucrose] | 35.1 ° | 58.9 s | 1673 | 28.6 | – | – | – | – | – | – | – |
| 11.0 °C | O=C[C@H](O)[C@@H](O)[C@@H](O)[C@H](O)CO [Galactose, galactose] | 51.5 ° | 62 s | 3561 | 64.9 | 39.3 ° | 725 | 14.6 | 57.1 s | approximately 2.5 times | lower | increased |
| 26.0 °C | OC[C@@H](O)[C@H](O)[C@@H](O)CO [Xylitol, xylitol] | 39.3 ° | 70.3 s | 2874 | 53.1 | 46 ° | 2457 | 44.7 | 64.5 s | – | – | – |
| 16.5 °C | OC[C@@H](O)[C@@H](O[C@H]1O[C@H](CO)[C@@H](O)[C@H](O)[C@H]1O)[C@H](O)[C@@H](O)CO [Maltitol] | – | – | – | – | – | – | – | – | – | – | – |
| 13.0 °C | OC[C@@H](O)[C@@H](O)[C@H](O)[C@H](O)CO [Mannitol] | – | – | – | – | – | – | – | – | – | – | – |
